As usually defined, the IC50 is the concentration at which inhibition is half-maximal.

Where a name gives a salt, the structure may show the parent alone.

For the first experiment, the target named is T1, human p38 kinase alpha (Homo sapiens, UniProt Q16539).
T1 construct: The coding region of the human p38α cDNA was obtained by PCR-amplification from RNA isolated from the human monocyte cell line THP.1; made in house; host or cells: E. coli DH10B
T1 sequence (Q16539 whole entry): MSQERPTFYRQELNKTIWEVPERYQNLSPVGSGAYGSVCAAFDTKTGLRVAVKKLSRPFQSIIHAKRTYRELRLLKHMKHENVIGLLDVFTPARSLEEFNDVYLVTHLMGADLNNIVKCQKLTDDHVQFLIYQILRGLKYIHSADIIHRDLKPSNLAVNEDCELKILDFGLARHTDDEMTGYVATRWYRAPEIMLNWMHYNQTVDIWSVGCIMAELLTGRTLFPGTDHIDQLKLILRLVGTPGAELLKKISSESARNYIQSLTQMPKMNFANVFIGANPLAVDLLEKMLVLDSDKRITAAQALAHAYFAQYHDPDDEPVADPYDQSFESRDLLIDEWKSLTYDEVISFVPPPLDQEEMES
Nature of the experiment: In vitro p38 kinase inhibition analysis (PHAS-I 32P-ATP or EGFRP 33P-ATP format). It counts as biochemical. Particulars: Table 1; compounds of Examples 1-28; one of two in vitro assay methods; Hydrochloride Hydrate; read-out: p38α Kinase Inhibition (IC50 in μM).
For `Clc1ccc(-c2n[nH]c([C@H]3CC[C@H](N4CCCCC4)CC3)c2-c2ccncn2)cc1` [Example 8, 4-[3-(4-chlorophenyl)-5-(4-piperidin-1-ylcyclohexyl)-1H-pyrazol-4-yl]pyrimidine Hydrochloride Hydrate], the IC50 was found to be 0.0582 µM.

The same experiment, now with this note: Table 1; compounds of Examples 1-28; one of two in vitro assay methods; Phosphate Dihydrate; read-out: p38α Kinase Inhibition (IC50 in μM).
`O=C(COP(=O)(O)O)N1CCC(c2[nH]nc(-c3ccc(Cl)cc3)c2-c2ccncn2)CC1` [Example 24, di-sodium 2-{4-[3-(4-chlorophenyl)-4-pyrimidin-4-yl-1H-pyrazol-5-yl]piperidin-1-yl}-2-oxoethyl Dihydrogen Phosphate Dihydrate]: the IC50 was found to be 0.0608 µM.

Still in this experiment, the particulars now being: Table 1; compounds of Examples 1-28; one of two in vitro assay methods; Trifluoroacetate; read-out: p38α Kinase Inhibition (IC50 in μM).
Turning to `Clc1ccc(-c2n[nH]c([C@H]3CC[C@H](N4CCCCC4)CC3)c2-c2ccncn2)cc1` [Example 7, 4-[3-(4-chlorophenyl)-5-(4-piperidin-1-yl-cyclohexyl)-1H-pyrazol-4-yl]pyrimidine Trifluoroacetate], the IC50 worked out at 0.0238 µM.

The experiment is the same for the next values; noted with them: Table 1; compounds of Examples 1-28; one of two in vitro assay methods; read-out: p38α Kinase Inhibition (IC50 in μM).
With `O[C@H]1CC[C@H](c2[nH]nc(-c3ccc(Cl)cc3)c2-c2ccncn2)CC1` [Example 6, 4-[3-(4-chlorophenyl)-4-pyrimidin-4-yl-1H-pyrazol-5-yl]-trans-cyclohexanol], the IC50 amounted to 0.289 µM. In the case of `O=C(CO)N1CCC(c2[nH]nc(-c3ccc(Cl)cc3F)c2-c2ccncn2)CC1` [Example 27, 2-{4-[3-(4-chloro-2-fluorophenyl)-4-pyrimidin-4-yl-1H-pyrazol-5-yl]piperidin-1-yl}-2-oxoethanol], the IC50 was determined as 0.209 µM.

Staying with this experiment, now noted: Table 2; additional pyrazole compounds, Examples 56-169; read-out: p38α Kinase Inhibition (IC50 in μM).
On to `CN(C)CCNc1nccc(-c2c(-c3ccc(Cl)cc3F)n[nH]c2C2CCN(C(=O)OC(C)(C)C)CC2)n1` [Example 160], for which the half-inhibitory concentration (IC50) turned out to be 4.4 µM. The same measure, in the same setting: in the case of `O=C(CO)N1CCC(c2[nH]nc(-c3ccc(Cl)cc3)c2-c2ccnc(O)n2)CC1` [Example 59] it was 15.8 µM; in that of `CN1CCC(c2[nH]nc(-c3ccc(Cl)cc3)c2-c2ccnc(NC3CCN(Cc4ccccc4)CC3)n2)CC1` [Example 152], 0.075 µM. In the case of `COc1ccc(-c2n[nH]c(C3CCN(C(=O)CO)CC3)c2-c2ccncn2)cc1` [Example 84], the IC50 was 1.5 µM.

On to `CC(=O)OCC(=O)N1CCC(c2[nH]nc(-c3ccc(Cl)cc3)c2-c2ccnc(S(C)(=O)=O)n2)CC1` [Example 95], for which the IC50 was 3.31 µM. With `C[C@@H](O)C(=O)N1CCC(c2[nH]nc(-c3ccc(Cl)cc3F)c2-c2ccncn2)CC1` [Example 113], the IC50 was found to be 0.207 µM. As to `O=C(CO)N1CCC(c2[nH]nc(-c3ccc(Cl)c(C(F)(F)F)c3)c2-c2ccncn2)CC1` [Example 78], the IC50 was 3.16 µM. Regarding `CN(C)CCNc1nccc(-c2c(-c3ccc(Cl)cc3F)n[nH]c2C2CCN(C(=O)CO)CC2)n1` [Example 162], the half-maximal inhibitory concentration (IC50) is 0.474 µM.

As to `CCc1ccc(-c2n[nH]c(C3CCN(C(=O)CO)CC3)c2-c2ccncn2)cc1` [Example 82], the concentration for half-maximal inhibition (IC50) worked out at 5.85 µM.

For the compound `CN(C)CCOc1nccc(-c2c(-c3cccc(Cl)c3)n[nH]c2C2CCNCC2)n1` [Example 138], the IC50 turned out to be 0.162 µM. Still for that read-out and setting: under `O=C(CO)N1CCC(c2[nH]nc(-c3cc(F)ccc3F)c2-c2ccncn2)CC1` [Example 87] stands 1.75 µM; under `C[C@@H](N[C@H]1CC[C@@H](c2[nH]nc(-c3ccc(Cl)cc3)c2-c2ccncn2)CC1)c1ccccc1` [Example 122], 0.0449 µM.
